Measured values: patent US6726928B2, “Process for preparing solid dosage forms for unpalatable pharmaceuticals” (R.P. Scherer Technologies, Inc., priority 1994, dated 2004)

Experiment: pH dependence of Piroxicam solubility
Type: physicochemical
Text: The solubility of weak acids and weak bases may be adjusted by pH control. Increasing the pH of a solution can decrease solubility of a weak base, whereas the solubility of a weak acid can be […] by a pH decrease. The relative levels of weak acid or weak base added to the drug can be calculated with the knowledge of the Henderson-Hasselbalch equation, and by calculation of the pKa of the drug concerned in the solvent in question. […] Piroxicam ([…]) has a “U”-shaped pH solubility curve with a minimum around pH 3.5. […] A further advantage arising out of the reduced solubility of Piroxicam is reduced formation of the hydrate which has a bright yellow color.

CN1C(C(=O)Nc2ccccn2)=C(O)c2ccccc2S1(=O)=O [Piroxicam]
pH of minimum of the U-shaped pH solubility curve: ~3.5
change in solubility on pH adjustment (pH adjusted from about 6.5 to approximately 4.0 by addition of an acid such as citric acid): approximately tenfold decrease in solubility
